Assay results reported in a melting point compilation (Tetko et al.; mined from patent text by program, amines drawn as free bases though some values may be those of a salt).

Row | SMILES | melting point [°C]
1 | CC(C)(N)CNC(N)=O | 58 to 62
2 | S=C=Nc1c(Br)cccc1Br | 63 to 65
3 | Cc1ccc(OC2SCC(O)C(O)C2O)c(-c2ccncc2)n1 (centres undefined) | 196 to 200
4 | O=C(NCCc1cccs1)C12CC3CC(CC1C3)C2 | 113 to 114
5 | CNC(=O)Cc1cccc(NC(=O)NC)c1 | 175 to 177
6 | OCc1cc(N2CCCC2)c(Br)cn1 | 108 to 110
7 | CN(CCN(C)c1ccnc2c(NC(=O)c3c(Cl)cccc3Cl)cccc12)C(=O)c1cccnc1 | 195 to 203
8 | Nc1c2c(nc3ccccc13)CCc1cn(Cc3ccccc3)nc1-2 | 206 to 207
9 | CCc1cc2c(s1)-n1c(C)nnc1C(CC(=O)Nc1ccccc1)N=C2c1ccc(Cl)cc1 (centres undefined) | 238 to 239
10 | COc1ccc(C(=O)Nc2ccncc2)c2c3ccccc3n(Cc3ccc(F)cc3)c12 | 230 to 232
11 | CCC(C(=O)c1ccc(Cl)cc1)n1ncn(-c2ccc(N3CCNCC3)cc2)c1=O (centres undefined) | 176
12 | O=C(NCc1cccs1)C12CC3CC(CC(O)(C3)C1)C2 | 140 to 141
13 | COc1cc2ncnc(N3CCC(CN4C=CC(C)=NS4(=O)=O)CC3)c2cc1OC | 203 to 207
14 | CCOC(=O)C1=C(C)Nc2n[nH]cc2C1c1ccccc1C(F)(F)F (centres undefined) | 259 to 262
15 | CCCCCCCCCCCCCCCC(=O)Nc1cc(NC(=O)CCCCCCCCCCCCCCC)cc(C(=O)N(CC(=O)O)CC(=O)O)c1 | 129 to 133
16 | CCc1cc(=O)n(-c2cc(OC(C)C)c(Cl)cc2F)c(=O)n1C | 72 to 74
17 | Cn1ccc2cc(NC(=O)c3cc4cccnc4n3Cc3cccc(F)c3)ccc21 | 191 to 192
18 | NS(=O)(=O)c1cccc(NC(=O)c2cnn3c(C4CC4)cc(-c4ccc(C(F)(F)F)cc4)nc23)c1 | 249 to 250
19 | C[C@H](N)C(=O)NCc1cccc(Nc2n[nH]c3ncnc(Nc4cccc(Cl)c4)c23)c1 | 222 to 225
20 | CC(=O)Nc1cc(Oc2ccc3c(C(=O)Nc4ccc(CN5CCN(C)CC5)cc4)cccc3c2)ncn1 | 238 to 242
21 | N=c1[nH]c2ccncc2c2nc(-c3ccco3)nn12 | 320 to 321
22 | CCN1c2ncc(CCc3ccnc(O)c3)cc2C(=O)N(C)c2ccc(Cl)nc21 | 243 to 244
23 | Cc1nc(NCc2ccccc2C)c2nc(-c3ccccc3)cc-2[nH]1 | 277 to 281
24 | Cc1cc(Cl)cnc1N | 63 to 64
25 | CS(=O)(=O)c1ccc(Cl)cc1[N+](=O)[O-] | 145

Row | SMILES | melting point [°C]
26 | Cn1cc(C(=O)O)c(=O)c2cc3cc(F)c(N4CCNC(c5ccccc5)C4)cc3nc21 (racemic) | 265
27 | CCCCc1nc(CO)c(S(=O)CC)n1Cc1ccc(-c2ccccc2C(=O)O)cc1 (centres undefined) | 240
28 | CCOC(=O)CSc1nc(Cl)cc(-c2ccccc2)n1 | 82 to 84
29 | CC(C)(C)c1ccc(S(=O)(=O)N2c3ccccc3C[C@H]2C(=O)NCc2ccc(CC(=O)O)cc2)cc1 | 80 to 85
30 | CCn1cc(-c2cccc(C(F)(F)F)c2)c(=O)n1-c1ccccc1 | 156 to 157
31 | CCC1CC2C3CCC4=CC(=O)CCC4C3CCC2(C)C1OC(=O)CCl (centres undefined) | 135 to 136
32 | COc1cnc(Cl)c(C(N)=O)c1 | 129 to 132
33 | N#CC1=C(C2CC2)Nc2n[nH]cc2C1c1ccccc1Br (centres undefined) | > 250
34 | COc1ccc(-n2c(-c3ccccc3)cc3c2CCCC3)cc1 | 132 to 133
35 | NC(=O)c1nc(-c2ccccn2)n2c1CN=C(c1ccccc1Cl)c1cc(Cl)ccc1-2 | 255 to 257
36 | CC(=O)c1cccc([N+](=O)[O-])c1Cl | 41 to 43
37 | CCOC(=O)c1cn2c3c(c(-c4cc(C)nc(C)c4)c(F)cc3c1=O)OC[C@@H]2C | 267 to 273
38 | CC(C#N)=C1CCN(c2ccc(N3C[C@H](CNC(=O)C(F)F)OC3=O)cc2F)CC1 | 172 to 174
39 | O=C(CNC(=O)c1ccc(/C=C/C(c2cc(Cl)c(Cl)c(Cl)c2)C(F)(F)F)cc1Cl)NCC(F)(F)F (centres undefined) | 83 to 85
40 | Cc1ccc(N2C(=O)C(O)=C(C(=O)c3ccc(C(C)C)cc3)C2c2ccc(O)cc2)nn1 (centres undefined) | 222 to 224
41 | C[C@H](/C=C\c1ccc(Cc2ccc(F)cc2)s1)N(O)C(N)=O | 123 to 124
42 | COC(=O)c1nn(-c2ccccc2F)cc(OC)c1=O | 155 to 157
43 | CCOC(=O)c1c2n(c3cc(Br)c(F)cc3c1=O)CCS2 | 258 to 262
44 | COc1ccc(C=CC(=O)C(CCC(=O)O)(Cc2ccccc2Cl)c2ccccc2)cc1 (centres undefined) | 152 to 157
45 | O=C(O)Cc1cc(C(=O)c2c(F)cccc2F)ccc1O | 120
46 | COC(=O)C1CN(C(=O)c2cc(OC)c(OC)c(OC)c2)CCN1 (centres undefined) | 113 to 114
47 | Cc1c(NC(=O)c2ccc(-c3cccc(NC(=O)C(C)C)c3)cc2)ccc2cc(CN3CCCC3)cnc12 | 152 to 155
48 | Cc1cc(-c2nc(CCl)co2)sc1Br | 71 to 72
49 | Clc1cc(Br)ccc1OCc1ccccc1 | 59.5 to 60
50 | COc1ccc2c(CN3CCC[C@H]3C(=O)O)cc3cc4c(cc3c2c1)OCO4 | 145 to 146

Row | SMILES | melting point [°C]
51 | COC(=O)CCCCCCCCC(=O)c1ccccc1 | 37 to 38
52 | CCOC[PH](=O)SCCSCCNC(=O)CCCCCn1c(=O)n(C)c(=O)c2[nH]cnc21 (centres undefined) | 103 to 106
53 | CC(C)C(=O)CCC(C)C1CCC2C3CC=C4CC(O)CCC4(C)C3CCC12C (centres undefined) | 135 to 136
54 | CC1=NNC(=O)N(N=Cc2cccnc2C)C1 | 226 to 229
55 | Cc1[nH]cnc1/C=C/C(=O)c1c(C)sc2ccccc12 | 154 to 156
56 | COc1nc(C)nc(NC(=O)NS(=O)(=O)c2ccccc2Cc2nnc(SC)s2)n1 | 140 to 146
57 | CC(=O)Nc1cc(C(C)(C)C)nn1C(=NOS(=O)(=O)c1ccc(C)cc1)C(C)CN1C(=O)c2ccccc2C1=O (centres undefined) | 170 to 172
58 | CNc1nc(Nc2ccc(Cl)c(Cl)c2)ncc1N1C(=O)CNC1=O | 301
59 | COc1cc2c(c3c1OC(C)(C)C3)C(c1cccc(-c3ccc(N)nc3)c1)=NC(C)(C)C2 | 165 to 168
60 | COc1ccc(Br)cc1N(C=NCl)C1CC1 | 185
61 | CCOc1ccc(CN2C(=O)SC(CCCC#Cc3ccc(Cl)cc3)(S(=O)(=O)c3ccc(C)cc3)C2=O)c(OCC)c1 (centres undefined) | 151 to 153
62 | COc1cccc2c(Nc3ccc(O)cc3C)c(C(=O)C(C)C)cnc12 | 243 to 245
63 | CC1(C)CCCc2ccc(CC#Cc3ccc(C(=O)O)c(O)c3)cc21 | 185 to 187
64 | COc1cc(C(O)Cc2ccccc2)ccc1OCc1ccccc1 (centres undefined) | 97 to 98
65 | Cc1nc(-c2cccnc2)sc1-c1ccnc(Nc2ccc3c(c2)OCO3)n1 | 187 to 188
66 | O=C(Nc1cc(-c2ccnc3c(C(=O)c4cccs4)cnn23)ccc1Cl)c1ccccc1 | 217 to 218
67 | O=c1[nH]c(=O)n([C@@H]2CO[C@H](CO)[C@@H](O)C2)cc1I | 219 to 220
68 | O=C(O)Cc1ccn(-c2ccc(F)cc2)c1 | 100 to 102
69 | O=C1c2ccccc2COc2ccc(CCO)cc21 | 78 to 81.5
70 | CC(=O)Nc1cccc2ccc(O)cc12 | 161 to 162
71 | CCOC(=O)c1cnc(-c2ccccc2OC(C)CC)[nH]c1=O (centres undefined) | 134 to 136
72 | O=[N+]([O-])c1ccc(Cl)c(Cl)c1Br | 73
73 | CCCCC(CC)COc1cccc(N2C(C)=CC(=C=C3C(C#N)C(=C(C#N)C#N)OC3(C)C)C=C2C)c1 (centres undefined) | 181
74 | S=C(NCc1ccccc1)N1CCc2c([nH]c3ccccc23)C1c1ccc2c(c1)OCO2 (centres undefined) | 205 to 207
75 | NC(=O)N(O)CCNC(=O)c1ccc(Cl)cc1 | 172 to 173

Row | SMILES | melting point [°C]
76 | CCCCCS(=O)(=O)NC(=O)/C=C/c1ccc(OCCOC)cc1NC(=O)c1ccc(Cl)cc1Cl | 177
77 | CCOC(=O)CNc1ccc(OCC(=O)OCC)c(NC(=O)c2ccc(OCCCCc3ccccc3)cc2)c1 | 61 to 63
78 | NC(=O)c1ccc(COc2ccc3c(c2)CCN(C2CCN(C4CCC4)CC2)C3=O)cc1 | 292 to 293
79 | CC1(C)COC(=O)N1c1nc(-c2cccc(Br)c2)cs1 | 142 to 144
80 | O=c1[nH]c2ncc(-c3ccncc3)nc2n1CC1CCCCC1 | 267 to 269
81 | CC(C)n1cnc2c(Nc3cccc(F)c3)nc(NCCO)nc21 | 142
82 | Cc1ccccc1-c1noc2c(Cl)c(OCC(=O)O)ccc12 | 179 to 181
83 | O=C(c1cccc(Br)c1)C(Br)C(Br)c1cccc(Br)c1 (centres undefined) | 159 to 160
84 | CCCc1cc(=O)oc2cc(OS(=O)(=O)c3ccc(C)cc3)c3c(c12)OC(C)(C)C=C3 | 150 to 151
85 | CCc1ccc2c(c1)C=Cc1cc(C)ccc1C2c1cn(-c2ccnc(N3CC(C(=O)Nc4nc(CC(=O)O)cs4)C3)n2)c(=O)[nH]c1=O (centres undefined) | 235
86 | O=[N+]([O-])c1ccc2c(c1OS(=O)(=O)C(F)(F)F)CCC2 | 44 to 46
87 | CCCCNC(=O)c1nc2ccc(OC)cc2[nH]1 | 125 to 126
88 | CCC(=O)NCCC1CCc2cc(F)c(OC)cc21 (centres undefined) | 76 to 78
89 | O=C1Nc2ccncc2C(c2ccccc2)N1C1CCN(Cc2ccccc2)CC1 (centres undefined) | 209 to 210
90 | COc1c(C(C)(C)C)cc([PH](=O)c2cc(C(C)(C)C)c(OC)c(C(C)(C)C)c2)cc1C(C)(C)C | 166
91 | COc1ccc(C(=O)c2c(-c3ccc(O)cc3)sc3cc(O)ccc23)cc1 | 138 to 140
92 | Cc1ccc(-c2nnc(N3CCC(C(N)=O)CC3)nc2-c2ccc(C)cc2)cc1 | 222 to 224
93 | COc1cccc(Nc2nnc(Cc3ccncc3)c3ccccc23)c1 | 118 to 120
94 | CCN(c1ccc(C(C)=O)cc1)c1nc(=O)c2cccnc2s1 | 204
95 | Clc1cccc(-c2nc(-c3ccccn3)no2)c1Cl | 128 to 133
96 | Cc1ccc(Nc2nc(=O)cc(N)n2-c2ccccc2)cc1 | 207 to 210
97 | CC(C)CC1OC[C@@H]2CCCN2C1=O (some centres undefined) | 61 to 65
98 | C=CCONC(=O)COc1cccc2c1c(C(=O)C(N)=O)c(CC)n2Cc1ccccc1 | 175 to 177
99 | O=c1ccc(S(=O)(=O)c2cc3cc(Cl)cc(Cl)c3[nH]2)n[nH]1 | > 250
